{"source": "patent US10092620B2", "about": "“Uses of cyclic peptides for treating and preventing atherosclerosis” (THE SCRIPPS RESEARCH INSTITUTE, priority 2013, dated 2018)", "key": {"human plasma HDL": {"system": "human plasma HDL", "experiment": "human plasma HDL remodeling (NDGGE, immunoblot for human apoA-I)", "format": "biochemical", "settings": "human plasma in vitro; Western blot for apoA-I; FIGS. 1 and 2a", "excerpt": "As an initial phase of investigation, we evaluated in vitro the effectiveness of our cyclic D,L-α-peptides to remodel mature human plasma HDLs into lipid-poor HDL (FIG. 1 and FIG. 2a). Lipid-poor HDL particles are key acceptors of cholesterol in reverse cholesterol transport and are thus crucial for combating atherosclerosis. In fact, with respect to the cholesterol efflux capacity of human sera, the levels of lipid-poor HDL correlate much better than the levels of HDL-cholesterol or apoA-I. Briefly, our assay involved incubating human plasma with a peptide, after which the plasma sample was subjected to non-denaturing gradient gel electrophoresis (NDGGE) to separate the HDL subspecies and then immunoblotted for human apoA-I. The ranked activities of the cyclic D,L-α-peptides in promoting formation of lipid-poor HDL are shown in FIG. 1. It should be noted that there are inherent variabilities associated with electrophoretic transfer, staining, and densitometric quantitation, so the peptide ranking should be viewed as an approximate guide to relative plasma HDL remodeling efficacy. Nevertheless, the rankings were similar overall whether the panel was assayed by using peptide stock solutions prepared in 10% sucrose/H2O (FIGS. 1 and 2a) or peptide stock solutions prepared in 1:1 DMSO/H2O. From these preliminary structure-activity relationship (SAR) studies, we identified a pronounced sequence dependence for efficient plasma HDL remodeling (vide infra).\nHuman plasma remodeling: All procedures involving human samples were approved by TSRI Institutional Review Board. Procedures were modified from those reported in Troutt et al., J. Lipid Res. 49, 581-587, 2008. Blood samples from normal healthy human donors were obtained from TSRI Normal Blood Donor Program. EDTA-anticoagulated whole blood was centrifuged at 1500×g for 15 min within 1 h of being drawn from the donor. The plasma layer was aliquoted and used immediately or frozen at −80° C. for future use. Peptide stock solutions were prepared at ˜15 mM peptide in 50% DMSO for initial screenings, or at ˜2 mM peptide in 10% sucrose for remodeling assays at lower concentrations (FIG. 1) and cholesterol efflux assays (FIG. 2). Plasma samples (30 μL) were treated with peptide stocks, and the samples were incubated at 37° C. for 0.5-1 h, and then quenched by adding 270 μL of 50% sucrose (1:9 dilution). Samples were mixed with 6× native loading buffer (125 mM tris, pH 6.8, 0.02% bromophenol, 20% glycerol), of which 6 μL was loaded onto a 4-20% polyacrylamide gel. The molecular weight ladder used was High Molecular Weight Calibration Kit (Amersham Biosciences, #17-0445-01). […] The films were scanned and quantified by densitometry using the program LabWorks (v. 4.0.0.8). […]"}, "plasma HDL": {"system": "plasma HDL", "experiment": "in vivo plasma HDL remodeling after intraperitoneal injection (Western blotting for mouse apoA-I)", "settings": "male BALB/c mice (n=3), i.p. 20 mg/kg; FIG. 3a; 20 mg/kg", "experimental": "To ascertain if the cyclic D,L-α-peptides function in vivo as modulators of HDL, we administered 1 to mice (BALB/c, n=3) via intraperitoneal injection (i.p.) at a dose of 20 mg/kg. After various times, blood was drawn and the plasma was analyzed by Western blotting to determine the levels of the HDL subpopulations.\nIn vivo plasma remodeling: Cyclic peptide c[wLwReQeR], 1, was dissolved in 10% sucrose, and sterile filtered through a 0.22-μm syringe filter before injection. Mice were fasted beginning 12 h before dosing, and continued the fast until after the 8-h time point blood draw was completed. Groups of three mice received a 20 mg/kg dose of the cyclic peptide via intraperitoneal injection (0.3 mL). Blood was drawn (30-60 μL) from the retro-orbital sinus into a heparinized capillary tube before dosing (0 min) and at different intervals from 30 min to 8 h after dosing. Plasma was isolated immediately from the whole blood by centrifugation at 5000 rpm for 10 min at 4° C., after which 10 μL of plasma were mixed with 90 μL of 50% sucrose, vortexed for 30 s, and stored at 4° C. until all time points had been collected (samples were stored from 0-8 h). Samples were then mixed with 20 μL of 6× native loading buffer (125 mM tris, pH 6.8, 0.02% bromophenol, 20% glycerol). 6 μL of these samples were loaded onto a 4-20% polyacrylamide gel. Gels were run at constant 80 V at 4° C. for 14 h using a Laemli buffer system (25 mM tris, 192 mM glycine, pH 8.3). Gels were then blotted onto nitrocellulose membranes (0.45 μm, Bio-Rad) at constant 30 V at 4° C. for 2 h using the Laemli buffer (no methanol). The membrane was blocked with 5% non-fat dry milk (NFDM) in TBST (20 mM tris, 150 mM NaCl, pH 7.6, 0.1% Tween-20) for 1 h at 23° C., and then washed once for 10 min with TBST. […]\nIn vivo plasma HDL remodeling activities of some of the peptides were also analyzed. […] Results shown in the figure were determined by Western blotting for mouse apoA-I."}}, "note": "Entries after “also recorded” stand apart in the source; their conditions may differ. Non-standard residues stand in square brackets, D forms with d. Residues, ends and D or L forms follow the SMILES beside them.", "data": [{"smiles": "CC(C)C[C@@H]1NC(=O)[C@@H](Cc2c[nH]c3ccccc23)NC(=O)[C@H](CCCNC(=N)N)NC(=O)[C@@H](CCC(=O)O)NC(=O)[C@H](CCC(N)=O)NC(=O)[C@@H](CCC(=O)O)NC(=O)[C@H](CCCNC(=N)N)NC(=O)[C@@H](Cc2c[nH]c3ccccc23)NC1=O", "note": "[SEQ ID NO:1, c[wLwReQeR]] (cyclo([dW]L[dW]R[dE]Q[dE]R))", "values": [{"measurement": "plasma HDL remodeling to lipid-poor HDL (in words)", "setting": "human plasma HDL", "value": "considerably more active than any of four analogs"}, {"measurement": "level of lipid-poor HDL in plasma", "setting": "plasma HDL", "value": "marked increase in the amount of lipid-poor HDL for up to 8 h; also recorded: increased the level of lipid-poor HDL"}]}]}
